In brackets after ≈: the same amount, converted by molar mass. Read-outs that look alike come from different tables or passages of the source.

One test has as its system Jurkat cells. To be noted: cited from earlier work.
A further test deals with S. aureus ATCC 6538. Kind of test: Antibacterial screening, agar cup diffusion method. The class given is cell-based. Particulars: Staphylococcus aureus, ATCC6538; Gram + ve strain; read-out: Minimum inhibitory concentrations (MIC, µM) S. aureus ATCC 6538.
The test system of test [1] is K. pneumoniae ATCC 10,031. Kind of test: Antibacterial screening, agar cup diffusion method. To be noted: read-out: Minimum inhibitory concentrations (MIC, µM) K. pneumoniae ATCC 10,031. The test is classed as cell-based.
Method: (§2) Anti-bacterial activity of the recently synthesized compounds 3a-k was evaluated at AUMC (Assiut University Mycological Centre), Assiut, Egypt. Assays were done against Gram-negative strains of K. pneumoniae (ATCC 100310, E. coli (ATCC 25922), Pseudomonas aeruginosa (ATCC 27853) and the Gram-positive S. aureus (ATCC 6538) strain utilizing standard agar cup diffusion method. The isolates from the four bacterial species examined were kept in TSB (Trypticase Soya Broth, Becton and Dickinson) with 10% glycerol at -70 °C and then subcultured on TSA (Trypticase Soya Agar, Becton and Dickinson) and TSB for 24 h at 37 °C former to inoculation. Bacterial isolates were then plated on sterile petri plates with 1 × 10^8 CFU/mL (0.5 McFarland turbidity) and 20 mL of Mueller Hinton Agar media (Oxoid) was then loaded. To ensure that the microorganisms were evenly dispersed, the plates were gently rotated before being left to harden on a level surface. Four equally spaced spherical-shaped wells (10 mm diameter) were painstakingly drilled using a sterilized cork bore after media solidification. All tested compounds under test underwent two-fold serial dilutions in a sequential manner. Three replications of 100 µL of each concentration were added to a well using a micropipette. Plates were then incubated for 24-hour at 37 °C. The average of the inhibition zones was then calculated. To determine the MICs, the natural logarithm of each diluted test substance’s concentration was plotted against the average area of the related inhibition zone. Following that, a regression line was created and the intercept on the ‘ln concentration” axis was determined, and the antilogarithm was calculated to indicate the MIC value[34],[63].
The test system of a further test is E. coli ATCC 25,922. As to the kind of experiment: Antibacterial screening, agar cup diffusion method. The class given is cell-based. To be noted: Escherichia coli, ATCC25, Gram –ve strain; read-out: Minimum inhibitory concentrations (MIC, µM) E. coli ATCC 25,922.
In test [2] the test system is P. aeruginosa ATCC 27,853. Kind of test: Antibacterial screening, agar cup diffusion method. The class given is cell-based. Particulars: Pseudomonas aeruginosa, ATCC27; Gram –ve strain; read-out: Minimum inhibitory concentrations (MIC, µM) P. aeruginosa ATCC 27,853.
Method: as §2
The subject of test [3] is melanoma LOX IMVI cell line. As to the kind of experiment: Annexin V-FITC/PI apoptosis and necrosis assay. The test is classed as cell-based, human. To be noted: LOX IMVI treated with IC50 concentration. Here is the method:
Following the manufacturer’s instructions, the Annexin V-FITC Apoptosis Detection Kit (Bio Vision Research Products, USA) was used to analyze cell apoptosis. Briefly, 500 µL of 1X Binding buffer was used to resuspend 1-5 × 10^5 cells that had been harvested by centrifugation. Propidium iodide (PI, 50 mg/ml) and Annexin V-FITC, each administered in 5 µL, were also added. The cells were first incubated for 5 minutes at room temperature in the dark before being analyzed using the Annexin V-FITC binding flow cytometric technique (Ex = 488 nm; Em = 530 nm) with a FITC signal detector (typically FL1) and PI staining with a phycoerythrin emission signal detector (typically FL2). Before exposing adherent cells to Annexin V-FITC, we gently trypsinized and gave them a single wash in serum-containing medium (A.3–5). Cell synchronisation is done using Double-thymidine synchronization method and the used Media is double modifed eagle media (DMEM).
Cell cycle analysis and detection of apoptosis
Annexin V-FITC apoptosis assay
Cell apoptosis were analyzed by the Annexin V-FITC Apoptosis Detection Kit (Bio Vision Research Products, USA). Thereafter, 1-5 x 10^5 cells were collected by centrifugation and resuspend in 500 μl of 1X Binding Buffer. Added 5 μl of Annexin V-FITC and 5 μl of propidium iodide (PI 50mg/ml, optional.). The cells incubated at room temperature for 5 min in the dark; Analyzed by Annexin V-FITC binding flow cytometric method (Ex = 488 nm; Em = 530 nm) using FITC signal detector (usually FL1) and PI staining by the phycoerythrin emission signal detector (usually FL2). For adherent cells, we gently trypsinized and washed cells once with serum-containing media before incubation with Annexin V-FITC (A.3-5). […]

For the next test, the system named is PARP-1. Kind of test: Western blot of protein expression in LOX IMVI cells. The class given is cell-based, human. Particulars: control = 1. Here is the method: (§1) To evaluate the expression level of the apoptosis modulatory markers Bax, caspase 3 and PARP-1, western blot was performed as formerly described. Three different groups of LOX IMVI cells were permitted to grow to reach 70–80% confluence in […] flasks. The first group of LOX IMVI cells was treated with compound 3i. […] The media was taken out after 48 h, and cells underwent three rounds of ice-cold PBS washing. RIPA lysis buffer [consisting of Tris-HCl pH 7.6 (25 mM), NaCl (150 mM), EDTA (5 mM), NP-40 or Triton X-100 (1%), sodium deoxycholate (1%), SDS1 (1%)] with the proper phosphatase and a protease inhibitor was used to create the whole-cell lysate for 30 min. After centrifuging the mixture at 12,000 rpm for 20 min and sonicating it for five minutes, the supernatant was collected, split into aliquots, and kept at -80 °C. The Biuret method was used to determine protein content[27],[28]. Proteins in each matched cell lysate were denatured in 2 Laemmli buffer containing 5% β--mercaptoethanol at 95 °C for 5 min. For SDS-PAGE electrophoresis, 20 µg of protein per lane were loaded at 100 volts through a 6% stacking gel, then at 125 volts through a 10% resolving gel for around 2 h, and then transferred to a PVDF membrane using a semidry transfer apparatus (made by Cleaver Scientific) for 25 min. The PVDF membrane was first incubated for one hour at 4 °C in TBS buffer containing 0.1% Tween (TBST) and 5% fat-free milk, then overnight at 4 °C with monoclonal anti-Bax, anti-PARP-1, and anti-caspase-3 as primary antibodies (Cell Signalling Technology) at a dilution of 1:500. Membranes were first treated overnight, then three times washed in TBST buffer, then incubated at room temperature for 60 min with the corresponding HRP (horse radish peroxidase)-linked secondary antibodies (Dako). Then the substrate for the chemiluminescent Western ECL (Perkin Elmer, Waltham, MA) was added to the blot as described by the manufacturer by incubating the membranes with equal volumes of ECL solution A and ECL solution B for 1 min.
(A western blot detects proteins with antibodies after separation by electrophoresis.)

In the next test the test system is Bax. The test is described as above. The class given is cell-based, human. To be noted: control = 1. Here is the method: as §1
Another test has as its system active caspase-3. The description is as above. The class given is cell-based, human. To be noted: control = 1. Here is the method:
as §1

The test system of a further test is normal cell line WI 38. Kind of test: MTT cytotoxicity assay on normal cells. The test is classed as cell-based. To be noted: Homo sapiens; normal cell line WI 38, MTT assay, ± SEM; read-out: IC50 W138 normal cell line (µM ± SEM). As to the method:
After 24 h of culture incubation and supernatants discarded. […] Each test should include a blank containing complete medium without cells. […] Add reconstituted MTT in an amount equal to 10% of the culture medium volume. […] Spectrophotometrically absorbance was measured at a wavelength of 570 nm. […] Results from all experiments were recorded and the percentage of viable cells was calculated.
A general note: Tetrazolium assays rely on reduction of a dye to a coloured formazan, in cell work by metabolically active cells.

Another test addresses T1, topoisomerase IIβ (Homo sapiens, UniProt Q02880).
T1 construct: purchased
Kind of test: Topoisomerase II inhibition, human DNA topoisomerase Elisa kit. The test is classed as biochemical. Here is the method: Two folds of serial dilution was accomplished after standards and the tested compounds were dissolved in sample diluent. Horseradish peroxidase (HRP-avidin) and biotin-conjugated antibody were diluted 10 times each. Each well received 100 µL of each concentration of the standard or test chemicals, which were then added and incubated at 37 °C for 60 min. […] The microtiter plate was rinsed three times and given room to aspirate. After that, the plate was incubated at 37 °C for 60 min with 100 µL of HRP-avidin solution added to each well. After that, the plate was aspirated and cleaned 5 times. Each well received 90 µL of TMB substrate, and the plate was incubated for 30 min. at 37 °C in a light-protected environment. Finally, stop solution (50 µL) was loaded, and within 5 min, the absorbance at 450 nm was measured spectrophotometrically.
Topoisomerase enzyme assay
Topoisomerase I and II inhibitory activity […]
topoisomerase IIβ inhibitory activity utilizing the human DNA topoisomerase Elisa kit.
Standards and the tested compound were dissolved in sample diluent and 2 folds serial dilution was achieved. Biotin-conjugated antibody and avidin conjugated Horseradish Peroxidase (HRP-avidin) were diluted to 10 folds. 100 μL of each concentration of standard or test compound were added to each well. Incubate at 37 °C for 1 h. The liquid in each well was removed. 10 0 μL of Biotin-conjugated antibody solution was added to each well followed by incubation for 1 h at 37 °C. The microtiter plate was allowed to aspirate and washed 3 times. 100 μL of avidin conjugated Horseradish Peroxidase (HRP -avidin) solution was added to each well and the plate was incubated for 1 h at 37 °C. The plate was aspirated and washed 5 times. 90 μL of TMB substrate were added to each well and the plate was incubated for 30 min at 37 °C and protected from light. 50 μL stop so lution was added. The absorbance was measured spectrophotometrically within 5 min at 450 nm .

In test [4] the test system is melanoma LOX IMVI cell line. As to the kind of experiment: Cell cycle analysis, propidium iodide flow cytometry. The test is classed as cell-based, human. Particulars: LOX IMVI treated at IC50 concentration. Here is the method: The effect of compound 3i on cell cycle progression of LOX IMVI cell line was evaluated using Propidium Iodide Flow Cytometry Kit to measure the DNA content according to the reported protocols. The LOX IMVI cells used in this work were obtained from the American Type Culture Collection. Cells were cultured in DMEM (Invitrogen/Life Technologies) supplemented with 10% FBS (Hyclone), 10 µg/ml insulin (Sigma), and 1% penicillin-streptomycin. The remaining chemicals and reagents were all from Sigma or Invitrogen. Growth media was removed, cells washed with warm PBS and aspirated. Adhered cells were detached from media by addition of 5 ml 10% trypsin/EDTA and incubated 2 min in the incubator. The suspended cells harvested, aspirated to a falcon tube, centrifuged at 2000 rpm for 5 min. Cell count performed after suspending the cells into a fresh media and stained with trypan blue, counted and used for preparation of the appropriate number of cells.
In general terms: In flow cytometry, cells or beads pass a laser one at a time.

The subject of test [5] is A498 renal cancer cell line. As to the kind of experiment: cells. To be noted: Homo sapiens.
The test system of a further test is human melanoma LOX IMVI. As to the kind of experiment: cells.
The subject of test [6] is MDA-MB-231 breast adenocarcinoma. The arrangement: method as in PMID 24287557. Particulars: cited from earlier work.
Test [7] has as its system MCF-7 breast adenocarcinoma cell line. Also noted: method as in PMID 24287557. To be noted: cited from earlier work.
Test [8] has as its system MDA-MB-231 triple negative breast cancer cell line. Also noted: method as in earlier work. To be noted: cited from earlier work.
Test [9] relates to A549 lung cancer cell line. The arrangement: method as in PMID 27614408. Particulars: cited from earlier work.

T1 sequence (Q02880 whole entry): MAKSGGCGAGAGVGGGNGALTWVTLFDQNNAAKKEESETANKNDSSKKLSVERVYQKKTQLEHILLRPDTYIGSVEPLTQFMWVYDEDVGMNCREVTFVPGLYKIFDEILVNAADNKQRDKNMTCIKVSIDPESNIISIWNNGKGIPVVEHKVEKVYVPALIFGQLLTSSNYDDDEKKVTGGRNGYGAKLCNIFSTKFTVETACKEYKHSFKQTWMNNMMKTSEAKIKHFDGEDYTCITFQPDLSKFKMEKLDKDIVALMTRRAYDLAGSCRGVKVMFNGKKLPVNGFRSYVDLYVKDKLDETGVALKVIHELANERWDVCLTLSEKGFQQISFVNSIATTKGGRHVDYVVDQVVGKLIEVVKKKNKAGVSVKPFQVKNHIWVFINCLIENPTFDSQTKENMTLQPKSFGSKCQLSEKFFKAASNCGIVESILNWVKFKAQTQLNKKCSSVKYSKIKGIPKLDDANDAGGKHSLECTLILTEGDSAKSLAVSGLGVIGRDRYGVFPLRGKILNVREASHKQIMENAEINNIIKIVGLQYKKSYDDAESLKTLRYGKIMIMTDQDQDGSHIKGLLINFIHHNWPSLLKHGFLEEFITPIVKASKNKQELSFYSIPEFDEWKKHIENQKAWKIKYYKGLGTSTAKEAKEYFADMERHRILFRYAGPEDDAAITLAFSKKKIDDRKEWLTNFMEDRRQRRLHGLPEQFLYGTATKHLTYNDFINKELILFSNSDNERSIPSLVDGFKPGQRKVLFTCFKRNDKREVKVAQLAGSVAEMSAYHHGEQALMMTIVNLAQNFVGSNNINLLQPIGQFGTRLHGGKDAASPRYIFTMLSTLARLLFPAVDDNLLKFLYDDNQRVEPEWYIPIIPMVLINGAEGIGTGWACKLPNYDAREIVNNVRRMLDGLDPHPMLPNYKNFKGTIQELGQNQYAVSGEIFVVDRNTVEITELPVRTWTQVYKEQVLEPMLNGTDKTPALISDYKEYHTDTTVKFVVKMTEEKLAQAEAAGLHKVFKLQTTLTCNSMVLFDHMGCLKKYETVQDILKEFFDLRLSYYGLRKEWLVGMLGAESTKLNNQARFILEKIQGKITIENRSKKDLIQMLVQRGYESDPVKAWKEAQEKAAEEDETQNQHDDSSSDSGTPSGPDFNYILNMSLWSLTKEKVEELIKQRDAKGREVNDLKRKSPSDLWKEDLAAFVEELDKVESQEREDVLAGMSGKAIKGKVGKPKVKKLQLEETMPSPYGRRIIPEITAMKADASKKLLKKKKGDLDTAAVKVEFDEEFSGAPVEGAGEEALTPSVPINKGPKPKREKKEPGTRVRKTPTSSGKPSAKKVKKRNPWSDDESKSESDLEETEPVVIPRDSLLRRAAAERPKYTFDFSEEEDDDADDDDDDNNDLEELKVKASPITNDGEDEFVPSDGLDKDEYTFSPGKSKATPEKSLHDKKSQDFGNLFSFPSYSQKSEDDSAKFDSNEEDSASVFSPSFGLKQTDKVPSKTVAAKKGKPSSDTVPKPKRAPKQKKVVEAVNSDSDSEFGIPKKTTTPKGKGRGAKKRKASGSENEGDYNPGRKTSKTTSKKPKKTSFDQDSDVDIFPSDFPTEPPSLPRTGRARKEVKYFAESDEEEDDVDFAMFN
Method for S. aureus ATCC 6538: as §2

As for `O=C(O)c1cn(C2CC2)c2cc(N3CCNCC3)c(F)cc2c1=O` [Ciprofloxacin, reference compound], the “effect on proliferation of Jurkat cells” value in the test with Jurkat cells (concentration of 25 µg/mL) is reported as “inhibit the proliferation”. The “apoptosis in Jurkat cells” value in the test with Jurkat cells (doses higher than 80 µg/mL) was “induced apoptosis”. The MIC with S. aureus ATCC 6538 came to 5.49 µM; in [1] (Gram –ve strain), 0.10 µM (≈ 0.0331 µg/mL); in [1] (Klebsiella pneumoniae, ATCC10, Gram –ve strain) it was 0.1 µM (≈ 0.0331 µg/mL); in the test on E. coli ATCC 25,922 it was 0.04 µM (≈ 0.0133 µg/mL); in [2], 0.06 µM (≈ 0.0199 µg/mL).

Usually IC50 stands for the concentration that inhibits the measured activity by half. Broadly, the viability is the share of living cells, or the viability signal relative to a control. In the case of `COc1cccc2c1C(=O)c1c(O)c3c(c(O)c1C2=O)C[C@@](O)(C(=O)CO)C[C@@H]3O[C@H]1C[C@H](N)[C@H](O)[C@H](C)O1` [Doxorubicin, reference compound], in test [3], the “Apoptosis Early” value was 1.94%, the “Apoptosis Late” value turned out to be 28.53%, the “Apoptosis Total” value came out at 46.29% and the Necrosis came out at 15.82%. The “PARP-1 OD” value in the test on PARP-1 is reported as 0.38. In addition, in the test with Bax, the “Bax OD” value is reported as 6.56. Moreover, in the test on active caspase-3, the “Caspace-3 Optical density (OD)” value amounted to 5.67. The IC50 with normal cell line WI 38 was determined as 18.1 ± 0.98 µM. Half-maximal inhibition against topoisomerase IIβ (IC50) required 6.49 ± 0.35 µM. In test [4], the “%G0-G1 DNA content” value is given as 37.85%, the “%G2/M DNA content” value amounted to 5.94%, the “%Pre-G1 DNA content” value is recorded as 46.29% and the “%S DNA content” value was 56.21%. In test [5] (A498), this molecule gave a viability at 0.4 µM of 64.5%, a viability at 1.6 µM of 55.3%, a viability at 25 µM of 37.6% and a viability at 100 µM of 26.6%. In addition, in [5] (A498, read-out: In vitro cytotoxicity (IC50) A498 cell line (µM ± SEM)), the IC50 stood at 3.59 ± 0.2 µM. In the test with human melanoma LOX IMVI, this molecule yielded a viability at 0.4 µM of 70.4%, a viability at 1.6 µM of 58.2%, a viability at 25 µM of 42.6% and a viability at 100 µM of 30.4%. Besides, in the test on human melanoma LOX IMVI (read-out: In vitro cytotoxicity (IC50) LOX IMVI (µM ± SEM)), the IC50 amounted to 7.03 ± 0.4 µM.

In the case of `Cc1ccc(C(=O)CN2C(=O)S/C(=C\C3=C(Cl)c4cc(C)c(C)cc4CCC3)C2=O)cc1` [IV], the IC50 was 13.39 ± 0.04 µM in test [6] and 1.91 ± 0.03 µM in test [7].

For the molecule `O=C(CN1C(=O)S/C(=C\c2cc(-c3ccc(Cl)cc3)c3[nH]c4ccccc4c3c2)C1=O)N1CCOCC1` [VI], in test [8], the IC50 was 0.97 ± 0.13 µM.

Regarding `Cn1c(/C=C2\SC(=O)N(CC(=O)Nc3nc(-c4ccccc4)cs3)C2=O)nc2ccccc21` [V], the half-maximal inhibitory concentration (IC50) in test [9] is 11.5 ± 1.46 µM.
